{
  "source": "ChEMBL document CHEMBL1201862",
  "about": "“PubChem BioAssay data set” (2004)",
  "key": {"[1]": {"molecular_target": "Interleukin-8 (Homo sapiens, UniProt P10145)", "sequence (P10145 whole entry)": "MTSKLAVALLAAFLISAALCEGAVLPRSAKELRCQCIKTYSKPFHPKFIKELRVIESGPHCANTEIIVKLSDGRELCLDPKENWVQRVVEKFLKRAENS", "test": "Dose Response confirmation of uHTS small molecule hits for cystic fibrosis induced NFkb Inhibitors in a PAF-induced IL8 counterscreen.", "format": "functional", "details": "read-out: IC50_Mean"}, "[2]": {"molecular_target": "T1, Microphthalmia-associated transcription factor (Homo sapiens, UniProt O75030)", "T1 sequence (O75030 whole entry)": "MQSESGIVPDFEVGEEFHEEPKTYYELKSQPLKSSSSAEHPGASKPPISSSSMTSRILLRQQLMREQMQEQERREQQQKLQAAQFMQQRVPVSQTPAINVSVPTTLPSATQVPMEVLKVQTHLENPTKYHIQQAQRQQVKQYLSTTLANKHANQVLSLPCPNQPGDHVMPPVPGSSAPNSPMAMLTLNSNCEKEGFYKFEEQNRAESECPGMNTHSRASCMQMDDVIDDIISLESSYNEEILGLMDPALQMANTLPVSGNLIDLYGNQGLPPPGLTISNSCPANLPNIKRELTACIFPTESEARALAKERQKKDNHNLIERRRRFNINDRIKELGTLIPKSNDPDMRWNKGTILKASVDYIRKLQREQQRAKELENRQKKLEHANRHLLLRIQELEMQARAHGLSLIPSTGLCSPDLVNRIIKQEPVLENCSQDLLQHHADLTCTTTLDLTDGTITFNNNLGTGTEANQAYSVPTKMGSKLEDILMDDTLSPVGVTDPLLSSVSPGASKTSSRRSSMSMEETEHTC", "test": "reducers of TRPM1 reporter luminescence, concentration series – cell-based, SK-MEL-5, cherry-picked, set 3, MITF inhibitor project, dose response (AID 493073);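 also: SK-MEL-5 melanoma cells with luciferase driven by the MITF target TRPM1 promoter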", "format": "functional"}, "[3]": {"test": "inhibitors acting on PAX2 in cells – cell-based, plate reader, dry powder samples, selectivity assay for PAX8 inhibitor project, dose response (AID 743048);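 also: HEK293 cells carrying a WT1 promoter luciferase reporter driven by expressed Pax2; potency is for inhibition of Pax2 driven reporter signal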", "format": "functional"}, "[4]": {"test": "COV434 cell viability loss – plate reader, dry powder, SA7, cytotoxicity control for PAX8 inhibitor project, dose response (AID 743145)", "format": "functional, cell-based"}, "[5]": {"tested_on": "Vero", "test": "mammalian cell viability reduction – secondary assay, cytotoxicity control for West Nile virus antiviral project, dose response (AID 1650)", "format": "functional", "details": "Chlorocebus sabaeus"}, "[6]": {"test": "IGROV1 cell killing – plate reader, dry powder samples, PAX8 inhibitor project, dose response (AID 743043)", "format": "functional, cell-based", "details": "IGROV-1"}, "[7]": {"test": "PAX5 cellular inhibition readout – cell-based, plate reader, dry powder samples, selectivity assay for PAX8 inhibitor project, dose response (AID 743047);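 also: HEK293 cells carrying a Pax5 driven CD19 promoter luciferase reporter; potency of inhibitors that lower reporter luminescence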", "format": "functional"}, "[8]": {"test": "OV-90 cell viability loss – plate reader, dry powder, SA8, PAX8 inhibitor project, dose response (AID 743149)", "format": "functional, cell-based"}, "[9]": {"test": "PAX8-dependent cell viability loss – plate reader, dry powder, dose response (AID 743049)", "format": "functional, cell-based"}, "[10]": {"molecular_target": "Paired box protein Pax-8 (Homo sapiens, UniProt Q06710)", "sequence (Q06710 whole entry)": "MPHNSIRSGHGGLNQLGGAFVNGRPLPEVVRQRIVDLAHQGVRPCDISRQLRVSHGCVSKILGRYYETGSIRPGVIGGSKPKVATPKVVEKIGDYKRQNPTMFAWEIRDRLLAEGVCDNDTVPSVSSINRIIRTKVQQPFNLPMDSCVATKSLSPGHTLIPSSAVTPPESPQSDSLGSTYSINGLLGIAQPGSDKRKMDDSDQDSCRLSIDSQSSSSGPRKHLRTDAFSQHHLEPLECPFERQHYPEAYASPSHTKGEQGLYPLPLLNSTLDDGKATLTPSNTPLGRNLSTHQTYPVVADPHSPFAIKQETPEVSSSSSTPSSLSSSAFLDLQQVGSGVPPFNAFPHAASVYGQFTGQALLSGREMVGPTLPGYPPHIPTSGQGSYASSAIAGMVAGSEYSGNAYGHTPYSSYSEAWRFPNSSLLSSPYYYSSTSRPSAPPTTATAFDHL", "test": "PAX8 transcriptional activity inhibition in RMG-I – RMG-I cells, luciferase, cherry-pick, dose response (AID 687027);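 also: luciferase reporter driven by Pax8 target thyroperoxidase promoter measured by SteadyGlo luminescence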", "format": "functional, cell-based"}, "[11]": {"test": "OVCAR4 cell viability loss – plate reader, dry powder, SA11, cytotoxicity control for PAX8 inhibitor project, dose response (AID 743150)", "format": "functional, cell-based", "details": "OVCAR-4"}, "[12]": {"molecular_target": "T2, Replicative DNA helicase DnaB (Mycobacterium tuberculosis, UniProt P9WMR3)", "T2 sequence (P9WMR3 whole entry)": "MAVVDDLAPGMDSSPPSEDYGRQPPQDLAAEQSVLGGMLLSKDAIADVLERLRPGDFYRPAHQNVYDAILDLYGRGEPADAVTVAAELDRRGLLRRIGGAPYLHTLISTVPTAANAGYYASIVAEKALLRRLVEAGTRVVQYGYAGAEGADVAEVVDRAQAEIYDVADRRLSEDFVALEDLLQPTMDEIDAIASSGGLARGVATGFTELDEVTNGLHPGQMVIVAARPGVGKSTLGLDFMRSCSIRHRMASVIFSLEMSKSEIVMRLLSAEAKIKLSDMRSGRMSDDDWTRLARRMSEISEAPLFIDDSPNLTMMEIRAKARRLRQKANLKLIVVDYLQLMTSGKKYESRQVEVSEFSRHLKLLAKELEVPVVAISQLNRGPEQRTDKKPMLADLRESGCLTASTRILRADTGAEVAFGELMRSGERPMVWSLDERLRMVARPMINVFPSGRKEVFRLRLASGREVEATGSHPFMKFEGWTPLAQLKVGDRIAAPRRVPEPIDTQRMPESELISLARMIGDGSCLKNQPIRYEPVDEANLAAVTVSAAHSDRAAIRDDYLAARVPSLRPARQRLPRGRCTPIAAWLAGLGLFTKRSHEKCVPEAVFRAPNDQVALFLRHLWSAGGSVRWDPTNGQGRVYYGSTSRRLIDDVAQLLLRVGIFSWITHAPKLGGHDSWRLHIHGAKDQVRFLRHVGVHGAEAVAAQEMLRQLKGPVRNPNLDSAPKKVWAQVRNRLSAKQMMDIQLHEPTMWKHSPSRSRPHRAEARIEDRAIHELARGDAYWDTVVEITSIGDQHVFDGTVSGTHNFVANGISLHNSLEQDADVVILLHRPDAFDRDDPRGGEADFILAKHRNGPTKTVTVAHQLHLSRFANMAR", "test": "DnaB intein splicing inhibitors, dose response, biochemical, cell-free fluorescence (AID 449749)", "format": "functional"}, "[13]": {"molecular_target": "T3, Protein RecA (Mycobacterium tuberculosis, UniProt P9WHJ3)", "T3 sequence (P9WHJ3 whole entry)": "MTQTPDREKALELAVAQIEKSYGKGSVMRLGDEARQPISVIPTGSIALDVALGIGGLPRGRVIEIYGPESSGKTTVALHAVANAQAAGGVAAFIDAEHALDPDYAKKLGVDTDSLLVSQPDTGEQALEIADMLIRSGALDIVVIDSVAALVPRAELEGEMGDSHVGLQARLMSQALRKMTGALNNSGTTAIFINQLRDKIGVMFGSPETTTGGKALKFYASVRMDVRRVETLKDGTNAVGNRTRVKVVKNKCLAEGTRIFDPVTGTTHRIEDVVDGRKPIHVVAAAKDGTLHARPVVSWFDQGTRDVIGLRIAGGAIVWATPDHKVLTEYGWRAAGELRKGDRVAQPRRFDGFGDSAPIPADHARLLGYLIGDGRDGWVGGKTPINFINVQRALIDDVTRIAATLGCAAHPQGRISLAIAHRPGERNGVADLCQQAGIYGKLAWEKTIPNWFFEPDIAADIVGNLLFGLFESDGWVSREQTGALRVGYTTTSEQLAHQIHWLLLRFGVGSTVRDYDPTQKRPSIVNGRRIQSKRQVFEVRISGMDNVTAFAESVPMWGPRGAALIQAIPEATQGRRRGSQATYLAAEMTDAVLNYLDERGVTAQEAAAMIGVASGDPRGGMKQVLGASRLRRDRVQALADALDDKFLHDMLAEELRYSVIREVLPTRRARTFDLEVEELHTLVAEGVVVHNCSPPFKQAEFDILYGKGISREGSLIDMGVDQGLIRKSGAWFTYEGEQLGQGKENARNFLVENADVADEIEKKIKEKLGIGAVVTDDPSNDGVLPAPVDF", "test": "Fluorescence Cell-Free Homogeneous Dose Retest to Identify Inhibitors of RecA-Intein Splicing Activity. [Related pubchem assays (depositor defined):AID2097, AID2223, AID489010, AID492950]", "format": "functional"}, "[14]": {"molecular_target": "T4, Mitochondrial peptide methionine sulfoxide reductase (Bos taurus, UniProt P54149)", "T4 sequence (P54149 whole entry)": "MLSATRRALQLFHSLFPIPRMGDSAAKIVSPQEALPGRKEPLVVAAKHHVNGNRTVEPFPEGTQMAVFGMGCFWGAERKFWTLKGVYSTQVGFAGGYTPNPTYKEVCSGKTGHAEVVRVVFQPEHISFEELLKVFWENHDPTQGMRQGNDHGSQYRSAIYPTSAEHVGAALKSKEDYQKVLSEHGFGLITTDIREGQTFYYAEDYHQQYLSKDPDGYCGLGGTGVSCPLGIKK", "test": "Absorbance-based biochemical high throughput dose response assay for activators of Methionine sulfoxide reductase A (MsrA).", "format": "functional"}, "[15]": {"molecular_target": "T4, Mitochondrial peptide methionine sulfoxide reductase", "format": "functional"}, "[16]": {"molecular_target": "T5, Aryl hydrocarbon receptor (Homo sapiens, UniProt P35869)", "T5 sequence (P35869 whole entry)": "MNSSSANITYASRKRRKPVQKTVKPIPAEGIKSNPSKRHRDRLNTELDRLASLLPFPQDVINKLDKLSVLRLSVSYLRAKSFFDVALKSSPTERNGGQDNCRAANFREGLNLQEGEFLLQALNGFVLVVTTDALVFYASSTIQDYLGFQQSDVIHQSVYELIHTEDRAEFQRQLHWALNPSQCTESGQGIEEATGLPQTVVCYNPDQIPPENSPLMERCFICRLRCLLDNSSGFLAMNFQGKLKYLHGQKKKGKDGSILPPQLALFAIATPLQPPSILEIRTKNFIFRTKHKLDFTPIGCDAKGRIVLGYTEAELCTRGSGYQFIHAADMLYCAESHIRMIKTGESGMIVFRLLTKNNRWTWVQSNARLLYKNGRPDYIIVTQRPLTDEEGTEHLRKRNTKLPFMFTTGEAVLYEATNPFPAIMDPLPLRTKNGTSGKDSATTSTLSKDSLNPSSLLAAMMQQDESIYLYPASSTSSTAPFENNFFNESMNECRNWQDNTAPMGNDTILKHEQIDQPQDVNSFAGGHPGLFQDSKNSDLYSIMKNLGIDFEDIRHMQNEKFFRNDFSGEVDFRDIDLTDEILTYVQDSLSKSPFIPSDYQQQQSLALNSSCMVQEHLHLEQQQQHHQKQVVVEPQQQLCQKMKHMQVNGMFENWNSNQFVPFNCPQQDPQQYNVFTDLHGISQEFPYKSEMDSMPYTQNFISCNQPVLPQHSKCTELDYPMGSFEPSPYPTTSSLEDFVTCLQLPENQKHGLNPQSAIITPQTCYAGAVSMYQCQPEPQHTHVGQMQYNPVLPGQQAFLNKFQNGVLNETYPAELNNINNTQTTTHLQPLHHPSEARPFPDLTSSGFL", "test": "Luminescence-based cell-based high throughput dose response assay for activators of the Aryl Hydrocarbon Receptor (AHR). [Related pubchem assays: 2796 (Primary screen (AHR activators in singlicate)), 2845 (Confirmation screen (AHR activators in triplicate)), 434939 (Counterscreen (PXR activators in triplicate)), 2804 (Summary (AHR activators))]", "format": "ADME"}, "[17]": {"molecular_target": "Melanocortin receptor 4 (Homo sapiens, UniProt P32245)", "sequence (P32245 whole entry)": "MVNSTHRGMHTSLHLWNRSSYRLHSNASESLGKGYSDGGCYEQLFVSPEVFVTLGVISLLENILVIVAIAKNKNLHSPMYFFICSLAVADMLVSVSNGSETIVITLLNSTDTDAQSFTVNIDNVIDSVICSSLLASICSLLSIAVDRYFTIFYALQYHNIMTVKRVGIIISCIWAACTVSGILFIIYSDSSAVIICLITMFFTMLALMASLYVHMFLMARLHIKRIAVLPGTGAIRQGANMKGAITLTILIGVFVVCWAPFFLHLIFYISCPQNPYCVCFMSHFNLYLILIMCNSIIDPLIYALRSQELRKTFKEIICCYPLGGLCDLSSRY", "format": "functional, cell-based"}},
  "note": "Activity calls are given as the source filed them.",
  "data": [
    {"smiles": "Cc1ccc(S(=O)(=O)CC(CN2CCCCC2)N2CCCCC2)cc1", "note": "(configuration not stated)", "values": [
      {"measurement": "IC50", "setting": "[1]", "value": "4.55 µM (active)"},
      {"measurement": "AC50", "setting": "[2]", "value": "8.1 µM (active)"},
      {"measurement": "AC50", "setting": "[3]", "value": "> 100 µM (inactive)"},
      {"measurement": "AC50", "setting": "[4]", "value": "9.72 µM (active)"},
      {"measurement": "CC50", "setting": "[5]", "value": "8.81 µM (active)"},
      {"measurement": "AC50", "setting": "[6]", "value": "46.5 µM (active)"},
      {"measurement": "AC50", "setting": "[7]", "value": "22.9 µM (active)"},
      {"measurement": "AC50", "setting": "[8]", "value": "15.7 µM (active)"},
      {"measurement": "AC50", "setting": "[9]", "value": "17.1 µM (active)"},
      {"measurement": "AC50", "setting": "[10]", "value": "4.72 µM (active)"},
      {"measurement": "AC50", "setting": "[11]", "value": "80.7 µM (active)"}
    ]},
    {"smiles": "O=C1/C(=N/c2ccc(O)cc2)C(Cl)=C(O)c2ccccc21", "values": [
      {"measurement": "AC50", "setting": "[12]", "value": "3.36 µM (active)"},
      {"measurement": "EC50", "setting": "[13]", "value": "3.48 µM (active)"},
      {"measurement": "EC50", "setting": "[14]", "value": "> 104 µM (inactive)"},
      {"measurement": "IC50", "setting": "[15]", "value": "155 µM (inactive)"},
      {"measurement": "EC50", "setting": "[16]", "value": "> 1.13 µM (active)"}
    ]},
    {"smiles": "COc1ccc(NC(=O)Nc2nc(C(N)Cc3ccc(C(F)(F)F)cc3)cs2)cc1", "note": "(configuration not stated)", "values": [
      {"measurement": "EC50", "setting": "[17]", "value": "> 89.2 µM (inactive)"}
    ]}
  ]
}
